Laboratory results taken from patent US9714250B2, “Crystalline forms of temozolomide and the method for preparing same” (Jiangsu Tasly Diyi Pharmaceutical Co., Ltd., priority 2013, dated 2017).

Columns and labels:
Type in all cases: physicochemical
[1] = Stability test, overall conclusions; details: light exposure, high-temperature, high-humidity and accelerated tests
Experimental: (§1) In the following test, related substances were determined as follows: HPLC method was used and chromatographic conditions were as follows: C18 column using octadecylsilane bonded silica gel as the filler, isocratic elution using methanol: 0.5% glacial acetic acid solution (10:90) as the mobile phase, and detection wavelength was at 254 nm.
It should be noted that each crystalline form of Form A, Form B and Form C has similar stability properties. Hereinafter, Form A0, Form B0 and Form C were chosen only for illustrative purpose.

[2] = High temperature test (stability); details: for Appearance and color / Content / Drying loss / Related substances: 60° C. incubator; for Related substances: HPLC; for Stability in the high-temperature test (conclusion): 60° C., 10 days
Experimental: as §1
Crystalline form A of Temozolomide (Form A0 prepared by the method of EXAMPLE 1) was placed in 60° C. incubator, sampled and determined on the 5th and 10th day.
Crystalline Form B of Temozolomide (Form B0 prepared by the method of EXAMPLE 6) was placed in 60° C. incubator, sampled and determined on the 5th and 10th day.
Crystalline Form C of Temozolomide (Form C prepared by the method of EXAMPLE 14) was placed in 60° C. incubator, sampled and determined on the 5th and 10th day.

[3] = High humidity test (stability); details: for Stability in the high-humidity test (conclusion) / Appearance and color / Content / Weight gain of moisture absorption / Related substances: 25° C., relative humidity 75±5%; for Stability in the high-humidity test (conclusion): 10 days; for Related substances: HPLC; for Weight gain of moisture absorption (trend): under the high-humidity condition
Experimental: as §1
Crystalline Form A of Temozolomide (Form A0 prepared by the method of EXAMPLE 1) was placed in 25° C. incubator (relative humidity: 75±5%), sampled and determined on the 5th and 10th day.
Crystalline Form B of Temozolomide (Form B0 prepared by the method of EXAMPLE 6) was placed in 25° C. incubator (relative humidity: 75±5%), sampled and determined on the 5th and 10th day.
Crystalline Form C of Temozolomide (Form C prepared by the method of EXAMPLE 14) was placed in 25° C. incubator (relative humidity: 75±5%), sampled and determined on the 5th and 10th day.

[4] = Light exposure test (stability); details: for Stability in the light exposure test (conclusion): 4500±500Lx, 10 days; for Appearance and color / Content / Drying loss / Related substances: light intensity 4500±500Lx; for Related substances: HPLC
Experimental: as §1
Crystalline form A of Temozolomide (Form A0 prepared by the method of EXAMPLE 1) was exposed under conditions of light intensity of 4500±500Lx, sampled and determined on the 5th and 10th day.
Crystalline form B of Temozolomide (Form B0 prepared by the method of EXAMPLE 6) was placed, exposed under conditions of light intensity of 4500±500Lx, sampled and determined on the 5th and 10th day.
Crystalline Form C of Temozolomide (Form C prepared by the method of EXAMPLE 14) was placed, exposed under conditions of light intensity of 4500±500Lx, sampled and determined on the 5th and 10th day.

[5] = Accelerated test (stability); details: 40±2° C., relative humidity 75±5%; for Stability in the accelerated test (conclusion): 6 months; for Appearance and color / Content / Related substances: polyethylene film bag; for Related substances: HPLC
Experimental: as §1
Crystalline Form A of Temozolomide (Form A0 prepared by the method of EXAMPLE 1) was sealed by a polyethylene film bag, placed under conditions of 40±2° C. and a relative humidity of 75±5% for 6 months, sampled and determined at the end of the 1st,2nd, 3rd and 6th month.
Crystalline Form B of Temozolomide (Form B0 prepared by the method of EXAMPLE 6) was sealed with a polyethylene film bag and placed under conditions of 40±2° C. and a relative humidity of 75±5% for 6 months, sampled and determined at the end of the 1st, 2nd, 3rd and 6th month.
Crystalline Form C of Temozolomide (Form C prepared by the method of EXAMPLE 14) was sealed with a polyethylene film bag and placed under conditions of 40±2° C. and a relative humidity of 75±5% for 6 months, sampled and determined at the end of the 1st, 2nd, 3rd and 6th month.

Cn1nnc2c(C(N)=O)ncn2c1=O [Form B, Temozolomide]
Change in the appearance and color, the drying loss, the content and the related substances [1]: no obvious change
Appearance and color ([2]; 0th day): White powder
Content ([2]; 0th day): 99.97%
Drying loss ([2]; 0th day): 0.33%
Related substances ([2]; 0th day): Not detected
Appearance and color ([2]; 5th day): White powder
Content ([2]; 5th day): 99.73%
Drying loss ([2]; 5th day): 0.27%
Related substances ([2]; 5th day): Not detected
Appearance and color ([2]; 10th day): White powder
Content ([2]; 10th day): 99.61%
Drying loss ([2]; 10th day): 0.29%
Related substances ([2]; 10th day): Not detected
Stability in the high-temperature test (conclusion) [2]: stable
Stability in the high-humidity test (conclusion) [3]: stable
Appearance and color ([3]; 0th day): White powder
Content ([3]; 0th day): 99.97%
Weight gain of moisture absorption ([3]; 0th day): 0%
Related substances ([3]; 0th day): Not detected
Appearance and color ([3]; 5th day): White powder
Content ([3]; 5th day): 99.63%
Weight gain of moisture absorption ([3]; 5th day): 0.37%
Related substances ([3]; 5th day): Not detected
Appearance and color ([3]; 10th day): White powder
Content ([3]; 10th day): 99.57%
Weight gain of moisture absorption ([3]; 10th day): 0.52%
Related substances ([3]; 10th day): Not detected
Weight gain of moisture absorption (trend) [3]: slightly increased
Stability in the light exposure test (conclusion) [4]: stable
Appearance and color ([4]; 0th day): White powder
Content ([4]; 0th day): 99.97%
Drying loss ([4]; 0th day): 0.38%
Related substances ([4]; 0th day): Not detected
Appearance and color ([4]; 5th day): White powder
Content ([4]; 5th day): 99.92%
Drying loss ([4]; 5th day): 0.33%
Related substances ([4]; 5th day): Not detected
Appearance and color ([4]; 10th day): White powder
Content ([4]; 10th day): 99.95%
Drying loss ([4]; 10th day): 0.29%
Related substances ([4]; 10th day): Not detected
Stability in the accelerated test (conclusion) [5]: stable
Appearance and color ([5]; 0th month): White powder
Content ([5]; 0th month): 99.97%
Related substances ([5]; 0th month): Not detected
Appearance and color ([5]; 1st month): White powder
Content ([5]; 1st month): 99.71%
Related substances ([5]; 1st month): Not detected
Appearance and color ([5]; 2nd month): White powder
Content ([5]; 2nd month): 99.82%
Related substances ([5]; 2nd month): Not detected
Appearance and color ([5]; 3rd month): White powder
Content ([5]; 3rd month): 99.73%
Related substances ([5]; 3rd month): Not detected
Appearance and color ([5]; 6th month): White powder
Content ([5]; 6th month): 99.85%
Related substances ([5]; 6th month): Not detected

Cn1nnc2c(C(N)=O)ncn2c1=O [Form C, Temozolomide]
Change in the appearance and color, the drying loss, the content and the related substances [1]: no obvious change
Appearance and color ([2]; 0th day): White powder
Content ([2]; 0th day): 99.91%
Drying loss ([2]; 0th day): 0.35%
Related substances ([2]; 0th day): Not detected
Appearance and color ([2]; 5th day): White powder
Content ([2]; 5th day): 99.79%
Drying loss ([2]; 5th day): 0.37%
Related substances ([2]; 5th day): Not detected
Appearance and color ([2]; 10th day): White powder
Content ([2]; 10th day): 99.69%
Drying loss ([2]; 10th day): 0.34%
Related substances ([2]; 10th day): Not detected
Stability in the high-temperature test (conclusion) [2]: stable
Stability in the high-humidity test (conclusion) [3]: stable
Appearance and color ([3]; 0th day): White powder
Content ([3]; 0th day): 99.91%
Weight gain of moisture absorption ([3]; 0th day): 0%
Related substances ([3]; 0th day): Not detected
Appearance and color ([3]; 5th day): White powder
Content ([3]; 5th day): 99.85%
Weight gain of moisture absorption ([3]; 5th day): 0.29%
Related substances ([3]; 5th day): Not detected
Appearance and color ([3]; 10th day): White powder
Content ([3]; 10th day): 99.63%
Weight gain of moisture absorption ([3]; 10th day): 0.47%
Related substances ([3]; 10th day): Not detected
Weight gain of moisture absorption (trend) [3]: slightly increased
Stability in the light exposure test (conclusion) [4]: stable
Appearance and color ([4]; 0th day): White powder
Content ([4]; 0th day): 99.91%
Drying loss ([4]; 0th day): 0.27%
Related substances ([4]; 0th day): Not detected
Appearance and color ([4]; 5th day): White powder
Content ([4]; 5th day): 99.90%
Drying loss ([4]; 5th day): 0.30%
Related substances ([4]; 5th day): Not detected
Appearance and color ([4]; 10th day): White powder
Content ([4]; 10th day): 99.96%
Drying loss ([4]; 10th day): 0.32%
Related substances ([4]; 10th day): Not detected
Stability in the accelerated test (conclusion) [5]: stable
Appearance and color ([5]; 0th month): White powder
Content ([5]; 0th month): 99.91%
Related substances ([5]; 0th month): Not detected
Appearance and color ([5]; 1st month): White powder
Content ([5]; 1st month): 99.61%
Related substances ([5]; 1st month): Not detected
Appearance and color ([5]; 2nd month): White powder
Content ([5]; 2nd month): 99.87%
Related substances ([5]; 2nd month): Not detected
Appearance and color ([5]; 3rd month): White powder
Content ([5]; 3rd month): 99.93%
Related substances ([5]; 3rd month): Not detected
Appearance and color ([5]; 6th month): White powder
Content ([5]; 6th month): 99.65%
Related substances ([5]; 6th month): Not detected
